Measurements taken from ChEMBL document CHEMBL1201861, “Genomics of Drug Sensitity in Cancer screening data, Wellcome Trust Sanger Institute”.

Tests used:
Test in all cases: cells
[1] = tested on: Capan-2; assay type: functional, cell-based, Homo sapiens; conditions: Homo sapiens, Capan-2;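 further: Capan-2 cell growth inhibition, read out with a viability assay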
Description: SANGER: Inhibition of human Capan-2 cell growth in a cell viability assay.

[2] = tested on: Detroit 562; assay type: functional, cell-based, Homo sapiens; conditions: Homo sapiens, Detroit 562;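 further: growth inhibition of human Detroit 562 cells, read out by a cell viability assay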
Description: SANGER: Inhibition of human Detroit562 cell growth in a cell viability assay.

[3] = tested on: ES3; assay type: functional, cell-based, Homo sapiens; conditions: Homo sapiens, ES3;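 further: growth inhibition of ES3 cells, read out with a cell viability assay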
Description: SANGER: Inhibition of human ES3 cell growth in a cell viability assay.

[4] = tested on: ES5; assay type: functional, cell-based, Homo sapiens; conditions: Homo sapiens, ES5;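 further: growth inhibition of human ES5 cells, read out by a cell viability assay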
Description: SANGER: Inhibition of human ES5 cell growth in a cell viability assay.

[5] = tested on: FTC-133; assay type: functional, cell-based, Homo sapiens; conditions: Homo sapiens, FTC-133
[6] = tested on: GAK; assay type: functional, cell-based, Homo sapiens; conditions: Homo sapiens, GAK;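 further: cell growth inhibition read out by a cell viability assay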
Description: SANGER: Inhibition of human GAK cell growth in a cell viability assay.

[7] = tested on: JAR; assay type: functional, cell-based, Homo sapiens; conditions: Homo sapiens, JAR;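 further: growth inhibition of human JAR cells determined with a cell viability assay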
Description: SANGER: Inhibition of human JAR cell growth in a cell viability assay.

[8] = tested on: K5; assay type: functional, cell-based, Homo sapiens; conditions: Homo sapiens, K5
Description: SANGER: Inhibition of human K5 cell growth in a cell viability assay.

[9] = tested on: KALS-1; assay type: functional, cell-based, Homo sapiens; conditions: Homo sapiens, KALS-1;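 further: growth inhibition of KALS-1 cells, determined with a cell viability assay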
Description: SANGER: Inhibition of human KALS-1 cell growth in a cell viability assay.

[10] = tested on: KE-37; assay type: functional, cell-based; conditions: Homo sapiens;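 further: growth inhibition of KE-37 cells, read out with a cell viability assay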
Description: SANGER: Inhibition of human KE-37 cell growth in a cell viability assay.

[11] = tested on: KG-1; assay type: functional, cell-based; conditions: Homo sapiens;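 further: growth inhibition of KG-1 cells, read out by a cell viability assay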
Description: SANGER: Inhibition of human KG-1 cell growth in a cell viability assay.

[12] = tested on: KGN; assay type: functional, cell-based, Homo sapiens; conditions: Homo sapiens, KGN;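 further: growth inhibition of KGN cells, read out with a cell viability assay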
Description: SANGER: Inhibition of human KGN cell growth in a cell viability assay.

[13] = tested on: KOSC-2; assay type: functional, cell-based, Homo sapiens; conditions: Homo sapiens, KOSC-2;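 further: growth inhibition of KOSC-2 cells, read out by a cell viability assay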
Description: SANGER: Inhibition of human KOSC-2 cell growth in a cell viability assay.

[14] = tested on: KS-1; assay type: functional, cell-based, Homo sapiens; conditions: Homo sapiens, KS-1;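 further: growth inhibition of KS-1 cells, read out with a cell viability assay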
Description: SANGER: Inhibition of human KS-1 cell growth in a cell viability assay.

[15] = tested on: KY821; assay type: functional, cell-based; conditions: Homo sapiens;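 further: growth inhibition of human KY821 cells, read out by a cell viability assay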
Description: SANGER: Inhibition of human KY821 cell growth in a cell viability assay.

[16] = tested on: LB771-HNC; assay type: functional, cell-based, Homo sapiens; conditions: Homo sapiens, LB771-HNC;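 further: growth inhibition of LB771-HNC human cells, read out with a cell viability assay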
Description: SANGER: Inhibition of human LB771-HNC cell growth in a cell viability assay.

[17] = tested on: LNCaP-Clone-FGC; assay type: functional, cell-based, Homo sapiens; conditions: Homo sapiens, LNCaP-Clone-FGC
Description: SANGER: Inhibition of human LNCaP-Clone-FGC cell growth in a cell viability assay.

[18] = tested on: LS-123; assay type: functional, cell-based, Homo sapiens; conditions: Homo sapiens, LS-123
Description: SANGER: Inhibition of human LS-123 cell growth in a cell viability assay.

[19] = tested on: MDA-MB-361; assay type: functional, cell-based, Homo sapiens; conditions: Homo sapiens, MDA-MB-361
[20] = tested on: MDA-MB-453; assay type: functional, cell-based, Homo sapiens; conditions: Homo sapiens, MDA-MB-453
Description: SANGER: Inhibition of human MDA-MB-453 cell growth in a cell viability assay.

[21] = tested on: MKN-28; assay type: functional, cell-based, Homo sapiens; conditions: Homo sapiens, MKN-28;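 further: cell viability assay read-out, IC50 reflects suppression of growth of human MKN-28 cells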
Description: SANGER: Inhibition of human MKN28 cell growth in a cell viability assay.

[22] = tested on: MKN-45; assay type: functional, cell-based, Homo sapiens; conditions: Homo sapiens, MKN-45;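 further: growth inhibition of human MKN-45 cells, measured with a cell viability assay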
Description: SANGER: Inhibition of human MKN45 cell growth in a cell viability assay.

[23] = tested on: MZ7-mel; assay type: functional, cell-based, Homo sapiens; conditions: Homo sapiens, MZ7-mel;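 further: growth inhibition of human MZ7-mel cells, measured by a cell viability assay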
Description: SANGER: Inhibition of human MZ7-mel cell growth in a cell viability assay.

[24] = tested on: NCI-H2170; assay type: functional, cell-based, Homo sapiens; conditions: Homo sapiens, NCI-H2170;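 further: cell viability assay measuring growth inhibition of human NCI-H2170 cancer cells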
Description: SANGER: Inhibition of human NCI-H2170 cell growth in a cell viability assay.

[25] = tested on: NCI-H23; assay type: functional, cell-based, Homo sapiens; conditions: Homo sapiens, NCI-H23;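 further: cell viability assay measuring growth inhibition of NCI-H23 cells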
Description: SANGER: Inhibition of human NCI-H23 cell growth in a cell viability assay.

[26] = tested on: NCI-H747; assay type: functional, cell-based; conditions: Homo sapiens;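 further: growth inhibition of human NCI-H747 cells, read out by a cell viability assay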
Description: SANGER: Inhibition of human NCI-H747 cell growth in a cell viability assay.

[27] = tested on: NKM-1; assay type: functional, cell-based; conditions: Homo sapiens;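 further: growth inhibition of NKM-1 cells, read out with a cell viability assay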
Description: SANGER: Inhibition of human NKM-1 cell growth in a cell viability assay.

[28] = tested on: NOMO-1; assay type: functional, cell-based; conditions: Homo sapiens;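 further: growth inhibition of human NOMO-1 cells measured by a cell viability assay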
Description: SANGER: Inhibition of human NOMO-1 cell growth in a cell viability assay.

[29] = tested on: ONS-76; assay type: functional, cell-based, Homo sapiens; conditions: Homo sapiens, ONS-76;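 further: growth inhibition of human ONS-76 cells, read out with a cell viability assay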
Description: SANGER: Inhibition of human ONS-76 cell growth in a cell viability assay.

[30] = tested on: P12-Ichikawa; assay type: functional, cell-based; conditions: Homo sapiens
[31] = tested on: PC-14; assay type: functional, cell-based, Homo sapiens; conditions: Homo sapiens, PC-14;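 further: cell viability assay measuring inhibition of PC-14 cell growth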
Description: SANGER: Inhibition of human PC-14 cell growth in a cell viability assay.

[32] = tested on: RH-1; assay type: functional, cell-based, Homo sapiens; conditions: Homo sapiens, RH-1;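 further: growth inhibition of human RH-1 cells, read out with a cell viability assay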
Description: SANGER: Inhibition of human RH-1 cell growth in a cell viability assay.

[33] = tested on: RKO; assay type: functional, cell-based, Homo sapiens; conditions: Homo sapiens, RKO;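 further: growth inhibition of human RKO cells, read out with a cell viability assay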
Description: SANGER: Inhibition of human RKO cell growth in a cell viability assay.

[34] = tested on: RPMI-7951; assay type: functional, cell-based, Homo sapiens; conditions: Homo sapiens, RPMI-7951
Description: SANGER: Inhibition of human RPMI-7951 cell growth in a cell viability assay.

[35] = tested on: RT-112; assay type: functional, cell-based, Homo sapiens; conditions: Homo sapiens, RT-112
Description: SANGER: Inhibition of human RT-112 cell growth in a cell viability assay.

[36] = tested on: RXF 393; assay type: functional, cell-based; conditions: Homo sapiens;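 further: growth inhibition of human RXF 393 cells, read out with a cell viability assay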
Description: SANGER: Inhibition of human RXF393 cell growth in a cell viability assay.

[37] = tested on: SAS; assay type: functional, cell-based, Homo sapiens; conditions: Homo sapiens, SAS;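 further: growth inhibition of SAS cells, read out with a cell viability assay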
Description: SANGER: Inhibition of human SAS cell growth in a cell viability assay.

[38] = tested on: SCC-25; assay type: functional, cell-based, Homo sapiens; conditions: Homo sapiens, SCC-25;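 further: growth inhibition of SCC-25 cells, measured with a cell viability assay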
Description: SANGER: Inhibition of human SCC-25 cell growth in a cell viability assay.

[39] = tested on: SCC-9; assay type: functional, cell-based, Homo sapiens; conditions: Homo sapiens, SCC-9;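 further: Read-out is a cell viability assay, with values giving inhibition of cell growth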
Description: SANGER: Inhibition of human SCC-9 cell growth in a cell viability assay.

[40] = tested on: SF-268; assay type: functional, cell-based, Homo sapiens; conditions: Homo sapiens, SF-268;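 further: growth inhibition of SF-268 cells determined with a cell viability assay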
Description: SANGER: Inhibition of human SF268 cell growth in a cell viability assay.

[41] = tested on: SW780; assay type: functional, cell-based, Homo sapiens; conditions: Homo sapiens, SW780;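 further: growth inhibition of the cells, read out with a cell viability assay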
Description: SANGER: Inhibition of human SW780 cell growth in a cell viability assay.

[42] = tested on: T47D; assay type: functional, cell-based, Homo sapiens; conditions: Homo sapiens, T47D;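 further: growth inhibition of human T47D cells, measured with a cell viability assay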
Description: SANGER: Inhibition of human T47D cell growth in a cell viability assay.

[43] = tested on: A 172; assay type: functional, cell-based, Homo sapiens; conditions: Homo sapiens, A 172;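 further: growth inhibition of A172 cells, measured with a cell viability readout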
Description: SANGER: Inhibition of human A172 cell growth in a cell viability assay.

[44] = tested on: AM-38; assay type: functional, cell-based, Homo sapiens; conditions: Homo sapiens, AM-38;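 further: growth inhibition of AM-38 cells of human origin, read out by a cell viability assay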
Description: SANGER: Inhibition of human AM-38 cell growth in a cell viability assay.

[45] = tested on: BHT-101; assay type: functional, cell-based, Homo sapiens; conditions: Homo sapiens, BHT-101
Description: SANGER: Inhibition of human BHT-101 cell growth in a cell viability assay.

[46] = tested on: BHY; assay type: functional, cell-based, Homo sapiens; conditions: Homo sapiens, BHY;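 further: cell growth inhibition read out by a viability assay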
Description: SANGER: Inhibition of human BHY cell growth in a cell viability assay.

[47] = tested on: CAL-85-1; assay type: functional, cell-based; conditions: Homo sapiens;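 further: growth inhibition of human CAL-85-1 cells, read out with a cell viability assay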
Description: SANGER: Inhibition of human CAL-85-1 cell growth in a cell viability assay.

[48] = tested on: TE-10; assay type: functional, cell-based, Homo sapiens; conditions: Homo sapiens, TE-10;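 further: growth inhibition of TE-10 cells, measured by a cell viability assay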
Description: SANGER: Inhibition of human TE-10 cell growth in a cell viability assay.

[49] = tested on: VMRC-RCZ; assay type: functional, cell-based; conditions: Homo sapiens;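 further: growth inhibition measured with a cell viability assay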
Description: SANGER: Inhibition of human VMRC-RCZ cell growth in a cell viability assay.

[50] = tested on: CAS-1; assay type: functional, cell-based, Homo sapiens; conditions: Homo sapiens, CAS-1;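 further: growth inhibition of CAS-1 cells, measured with a cell viability assay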
Description: SANGER: Inhibition of human CAS-1 cell growth in a cell viability assay.

[51] = tested on: COLO-678; assay type: functional, cell-based, Homo sapiens; conditions: Homo sapiens, COLO-678
Description: SANGER: Inhibition of human COLO-678 cell growth in a cell viability assay.

O=C1N=C(NCc2cccs2)S/C1=C\c1ccc2ncccc2c1
IC50 [1]: > 5 µM | IC50 [2]: > 5 µM | IC50 [3]: > 5 µM | IC50 [4]: > 5 µM | IC50 [5]: > 5 µM | IC50 [6]: > 5 µM | IC50 [7]: > 5 µM | IC50 [8]: > 5 µM | IC50 [9]: > 5 µM | IC50 [10]: > 5 µM | IC50 [11]: > 5 µM | IC50 [12]: > 5 µM | IC50 [13]: 3.45 µM | IC50 [14]: > 5 µM | IC50 [15]: > 5 µM | IC50 [16]: > 5 µM | IC50 [17]: > 5 µM | IC50 [18]: > 5 µM | IC50 [19]: > 5 µM | IC50 [20]: > 5 µM | IC50 [21]: > 5 µM | IC50 [22]: > 5 µM | IC50 [23]: > 5 µM | IC50 [24]: > 5 µM | IC50 [25]: > 5 µM | IC50 [26]: > 5 µM | IC50 [27]: > 5 µM | IC50 [28]: > 5 µM | IC50 [29]: > 5 µM | IC50 [30]: > 5 µM | IC50 [31]: > 5 µM | IC50 [32]: > 5 µM | IC50 [33]: > 5 µM | IC50 [34]: > 5 µM | IC50 [35]: > 5 µM | IC50 [36]: > 5 µM | IC50 [37]: > 5 µM | IC50 [38]: > 5 µM | IC50 [39]: > 5 µM | IC50 [40]: > 5 µM | IC50 [41]: > 5 µM | IC50 [42]: > 5 µM | IC50 [43]: > 5 µM | IC50 [44]: > 5 µM | IC50 [45]: > 5 µM | IC50 [46]: > 5 µM | IC50 [47]: > 5 µM | IC50 [48]: > 5 µM | IC50 [49]: > 5 µM | IC50 [50]: > 5 µM | IC50 [51]: > 5 µM

COc1ccc(C2=N[C@@H](c3ccc(Cl)cc3)[C@@H](c3ccc(Cl)cc3)N2C(=O)N2CCNC(=O)C2)c(OC(C)C)c1 [NUTLIN-3]
IC50 [1]: > 8 µM | IC50 [2]: > 8 µM | IC50 [3]: > 8 µM | IC50 [4]: > 8 µM | IC50 [5]: > 8 µM | IC50 [6]: > 8 µM | IC50 [7]: > 8 µM | IC50 [8]: 1.42 µM | IC50 [9]: > 8 µM | IC50 [10]: > 8 µM | IC50 [11]: > 8 µM | IC50 [12]: 3.08 µM | IC50 [13]: > 8 µM | IC50 [14]: 3.02 µM | IC50 [15]: > 8 µM | IC50 [16]: > 8 µM | IC50 [17]: 2.64 µM | IC50 [18]: > 8 µM | IC50 [19]: > 8 µM | IC50 [20]: > 8 µM | IC50 [21]: > 8 µM | IC50 [22]: > 8 µM | IC50 [23]: > 8 µM | IC50 [24]: > 8 µM | IC50 [25]: > 8 µM | IC50 [26]: > 8 µM | IC50 [27]: 1.05 µM | IC50 [28]: > 8 µM | IC50 [29]: 5.57 µM | IC50 [30]: > 8 µM | IC50 [31]: > 8 µM | IC50 [32]: > 8 µM | IC50 [33]: 3.54 µM | IC50 [34]: > 8 µM | IC50 [35]: > 8 µM | IC50 [36]: > 8 µM | IC50 [37]: > 8 µM | IC50 [38]: > 8 µM | IC50 [39]: > 8 µM | IC50 [40]: > 8 µM | IC50 [41]: 2.51 µM | IC50 [42]: > 8 µM | IC50 [43]: 2.68 µM | IC50 [44]: 6.76 µM | IC50 [45]: > 8 µM | IC50 [46]: > 8 µM | IC50 [47]: > 8 µM | IC50 [48]: > 8 µM | IC50 [49]: > 8 µM | IC50 [50]: > 8 µM | IC50 [51]: > 8 µM
